# Source: paper PMC11341980, “Dual TTK/PLK1 inhibition has potent anticancer activity in TNBC as monotherapy and in combination” (Frontiers in Oncology, 2024)
# Marks after values point to notes of the source that are not given here.
# How the values were obtained:
# KT-associated BubR1 = assay: Immunofluorescence of BubR1 at kinetochores in HT29 cells; format: cell-based; conditions: nocodazole-blocked mitotic HT29 cells, 1 hour, GI50 concentration
# Experimental: Immunoblotting, SAC co-immunoprecipitation assays and immunofluorescence microscopy were performed using standard procedures as outlined in the Supplementary Information .
# Cells were seeded on 13-mm glass coverslips in full medium and left to adhere O/N. After the appropriate treatments, cells were fixed with ice-cold 100% methanol for 5 min at -20°C and then rehydrated in PBS for 10 min. Coverslips were blocked for 30 min with 3% BSA (w/v) in PBS (BP) and then incubated with a 1:100 or 1:1000 dilution of BubR1 or CENP-C primary antibodies in BP, respectively, for 1 h in a moist environment. […] Images were projected (maximum intensity projection) using the NIS Elements AR software (Nikon) and quantification was performed using the General Analysis 2 tool. The quantification process comprised the following steps: selection of mitotic cells via intensity measurement of a threshold DAPI signal; generation of a kinetochore mask based on the intensity of bright spots (CENPC signal) inside the selected nuclei; generation of a tertiary mask for the BubR1 signal at kinetochores and BubR1 background measurements in the selected nuclei; export of reference images and signal intensities per cell.
# MDA-MB-231 xenograft = tested on: MDA-MB-231 xenograft; parameters: method as in PMID 28270606; conditions: daily dosing, MDA-MB-231 xenografted mice; cited from earlier work
# HT29 cells [1] = assay: Cell growth assay, GI50s used for SAC analyses; format: cell-based; conditions: Homo sapiens, HT-29; 120 h cell growth assay
# Experimental: Cell lines were seeded in appropriate culture medium into 96-well plates and 9 serial compound dilutions (0.004 – 1 μM) were added 24 h later for 120 h. Residual cells were stained with crystal violet or YO-PRO (Molecular Probes, #Y-3603). GI50 values were calculated by fitting the data to a sigmoidal dose–response model with a variable slope using GraphPad Prism software after subtraction of the starting control signal.
# [2] = tested on: SK-OV-3 ovarian cell-derived xenograft; assay: SK-OV-3 xenograft combination study with carboplatin; conditions: carboplatin 60 mg/kg, QW, IV alone
# Experimental: (§1) Animal studies were performed by Charles-River Laboratories (Wilmington, Massachusetts, USA; MDA-MB-231 xenograft experiments) or Crown Biosciences Inc, (Taicang, China; SK-OV-3 xenograft and TNBC PDX screening experiments). All studies were performed in adherence with local ethical rules.
# 5x10^6 MDA-MB-231 cells were injected subcutaneously (s.c.) in the flank of NCr nude mice (n=8-15/group for efficacy experiments, n=2-3/group for tumor pharmacodynamic evaluation), 1x10^7 SK-OV-3 cells were injected s.c. in the flank of Balb/c nude mice (n=8/group) and specific PDX tumor fragments (3x3x3 mm^3) were inoculated s.c. in the flank of Balb/c nude mice or NOD/SCID mice (n=4-5/group for efficacy screening and tumor pharmacodynamic experiments, n=8/group for combination experiments). Mice were randomly grouped based on a mean tumor volume (TV) of 100-200 mm^3. For dedicated pharmacodynamic studies, treatment began with TVs of ~400 mm^3. Mice were culled when individual tumors exceeded 1500 mm^3 or if the body-weight loss (BWL) was >15% for 3 consecutive days or reached 20%. Dosing holidays were given to allow recovery for BWL >10%. When the endpoint was reached, mice were culled and plasma and tissue samples obtained. Samples were snap frozen and stored at -80 °C. In some cases, tumors were formalin-fixed and paraffin-embedded (FFPE) following standard procedures. […]
# BR1282 TNBC PDX [3] = assay: BR1282 PDX combination with carboplatin; format: in vivo, mice; conditions: carboplatin 60 mg/kg, IV, QW
# Experimental: Samples were snap frozen and stored at -80 °C. […] Carboplatin was prepared in 5% glucose in pure water.
# BR1282 TNBC PDX [4] = conditions: paclitaxel 15 mg/kg, QW, IV alone
# Experimental: as §1
# 5x10^6 MDA-MB-231 cells were injected subcutaneously (s.c.) in the flank of NCr nude mice (n=8-15/group for efficacy experiments, n=2-3/group for tumor pharmacodynamic evaluation), 1x10^7 SK-OV-3 cells were injected s.c. in the flank of Balb/c nude mice (n=8/group) and specific PDX tumor fragments (3x3x3 mm^3) were inoculated s.c. in the flank of Balb/c nude mice or NOD/SCID mice (n=4-5/group for efficacy screening and tumor pharmacodynamic experiments, n=8/group for combination experiments). Mice were randomly grouped based on a mean tumor volume (TV) of 100-200 mm^3. For dedicated pharmacodynamic studies, treatment began with TVs of ~400 mm^3. Mice were culled when individual tumors exceeded 1500 mm^3 or if the body-weight loss (BWL) was >15% for 3 consecutive days or reached 20%. Dosing holidays were given to allow recovery for BWL >10%. When the endpoint was reached, mice were culled and plasma and tissue samples obtained. Samples were snap frozen and stored at -80 °C. In some cases, tumors were formalin-fixed and paraffin-embedded (FFPE) following standard procedures. […] Paclitaxel (6 mg/mL) was prepared using the clinical formulation (Cremophor-EL) and diluted in 0.9% saline just prior to use. Carboplatin was prepared in 5% glucose in pure water. Dosing and combination regimens for each specific experiment are outlined in the text.
# BW is presented as the % ΔBW and as the fractional-change (endpoint/treatment-start) for each group. As an assessment of synergy, the Clarke-Combination-Index (CCI) was applied ([32]) where a CCI of <-0.1 was considered synergistic, >+0.1 antagonistic, and in-between, additive.
# Paclitaxel (15 mg/kg) was administered IV QW to BR1282 PDX-bearing mice. […]
# HT29 cells [5] = assay: Flow cytometry cell cycle analysis; format: cell-based; conditions: nocodazole treatment
# Experimental: Cells were fixed in 70% high grade ethanol, washed in PBS, incubated in propidium iodide (PI) solution (50 μg/mL PI and 0.5 mg/mL RNAse A, Sigma-Aldrich, in PBS) for 30 min and analyzed using a BD FACSCanto II flow cytometer (BD Biosciences).
compound,measurement,setting,value
Cc1cc(-c2cnn3c(NC[C@H]4C[C@@](C)(O)C4)cc(Oc4cccnc4)nc23)ccc1C(=O)NC1CC1 [CFI-402257],reduction in KT-associated BubR1,KT-associated BubR1,Some reduction
same,maximum tumor growth inhibition,MDA-MB-231 xenograft,89%
same,GI50,HT29 cells [1],31 to 38 nM
N.N.O=C([O-])C1(C(=O)[O-])CCC1.[Pt+2] [Carboplatin],Efficacy ΔT/C (day 23),[2],0.72
same,Tolerability ΔT/C (day 23),[2]; body weight,0.97
same,antitumor activity of monotherapy,BR1282 TNBC PDX [3],without activity
CC(=O)O[C@H]1C(=O)[C@@]2(C)[C@H]([C@H](OC(=O)c3ccccc3)[C@]3(O)C[C@H](OC(=O)[C@H](O)[C@@H](NC(=O)c4ccccc4)c4ccccc4)C(C)=C1C3(C)C)[C@]1(OC(C)=O)CO[C@@H]1C[C@@H]2O [Paclitaxel],Efficacy ΔT/C (day 16),BR1282 TNBC PDX [4]; Study 1,0.24
same,Regressions (%) (end of treatment day),"BR1282 TNBC PDX [4]; Study 1, day 37, regressions in 1/8 mice",30 (37)* %
same,Efficacy ΔT/C (day 13),BR1282 TNBC PDX [4]; Study 2,0.48
COC(=O)Nc1nc2ccc(C(=O)c3cccs3)cc2[nH]1 [nocodazole],accumulation in G2/M of the cell cycle,HT29 cells [5],67%
CN1CCN(c2ccc(OC(F)(F)F)c(Nc3ncc4c(n3)-c3c(c(C(N)=O)nn3CCO)CC4)c2)CC1 [onvansertib],reduction in KT-associated BubR1,KT-associated BubR1,minor effects
same,GI50,HT29 cells [1],14 nM
